Results taken from patent US8247211B2, “Glycopeptide antibiotics” (American Cyanamid Company, priority 2001, dated 2012).
≈ marks a conversion by molar mass, not a printed value.

Experiments:
Experiment in all cases: In vitro antibacterial evaluation: minimum inhibitory concentration (MIC), broth dilution method
Assay type in all cases: cell-based
[1] = tested on: Streptococcus sp.; settings: 18 hours at 35° C.
Outline: (§1)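 Test strains, among them recent clinical isolates carrying methicillin, penicillin and/or vancomycin resistance, were inoculated at 5×10^5 CFU/mL. A broth dilution series spanning 64-0.06 μg/mL in Muller-Hinton II […] (NCCLS M7-A2) defined the MIC as the lowest growth-inhibiting concentration.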

[2] = tested on: Escherichia coli; settings: 18 hours at 35° C.
Outline: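 An MIC is reported for each organism as the least concentration giving inhibition, using broth dilution over 64-0.06 μg/mL with a 5×10^5 CFU/mL inoculum.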

[3] = tested on: Enterococcus sp.; settings: 18 hours at 35° C.
Outline: as §1

[4] = tested on: Staphylococcus sp.
Outline: as §1

[5] = broth dilution, inoculum 5×10^5 CFU/mL

- MIC Streptococcus agalactiae (GC 4564) ([1]; Streptococcus agalactiae (GC 4564)): 0.5 µg/mL (≈ 0.353 µM)
- MIC Streptococcus pneumoniae (ATCC 6301) ([1]; Streptococcus pneumoniae (ATCC 6301)): 0.12 µg/mL (≈ 0.0846 µM)
- MIC Streptococcus pneumoniae (GC 1894) ([1]; Streptococcus pneumoniae (GC 1894)): 0.12 µg/mL (≈ 0.0846 µM)
- MIC Streptococcus pneumoniae (GC 4565) ([1]; Streptococcus pneumoniae (GC 4565)): 0.12 µg/mL (≈ 0.0846 µM)
- MIC Streptococcus pyogenes (GC 4563) ([1]; Streptococcus pyogenes (GC 4563)): 0.12 µg/mL (≈ 0.0846 µM)
- MIC Streptococcus agalactiae (GC 4564) [1, 5]: 0.5 µg/mL (≈ 0.353 µM)
- MIC Streptococcus pneumoniae (ATCC 6301) [1, 5]: 0.12 µg/mL (≈ 0.0846 µM)
- MIC Streptococcus pneumoniae (GC 1894) [1, 5]: 0.12 µg/mL (≈ 0.0846 µM)
- MIC Streptococcus pneumoniae (GC 4565) [1, 5]: 0.12 µg/mL (≈ 0.0846 µM)
- MIC Streptococcus pyogenes (GC 4563) [1, 5]: 0.12 µg/mL (≈ 0.0846 µM)
- MIC Escherichia coli (ATCC 25922) ([2]; Escherichia coli (ATCC 25922)): >0.5 µg/mL
- MIC Escherichia coli (GC 4559) ([2]; Escherichia coli (GC 4559)): >0.5 µg/mL
- MIC Escherichia coli (GC 4560) ([2]; Escherichia coli (GC 4560)): 0.5 µg/mL (≈ 0.353 µM)
- MIC Enterococcus avium (GC 4558) ([3]; Enterococcus avium (GC 4558)): 0.5 µg/mL (≈ 0.353 µM)
- MIC Enterococcus faecalis (ATCC 29212) ([3]; Enterococcus faecalis (ATCC 29212)): 0.5 µg/mL (≈ 0.353 µM)
- MIC Enterococcus faecalis (GC 2242) ([3]; Enterococcus faecalis (GC 2242)): 0.5 µg/mL (≈ 0.353 µM)
- MIC Enterococcus faecalis (GC 2691) ([3]; Enterococcus faecalis (GC 2691)): 0.5 µg/mL (≈ 0.353 µM)
- MIC Enterococcus faecalis (GC 3059) ([3]; Enterococcus faecalis (GC 3059)): 0.5 µg/mL (≈ 0.353 µM)
- MIC Enterococcus faecalis (GC 4552) ([3]; Enterococcus faecalis (GC 4552)): 0.5 µg/mL (≈ 0.353 µM)
- MIC Enterococcus faecalis (GC 4553) ([3]; Enterococcus faecalis (GC 4553)): 0.5 µg/mL (≈ 0.353 µM)
- MIC Enterococcus faecalis (GC 4554) ([3]; Enterococcus faecalis (GC 4554)): 0.5 µg/mL (≈ 0.353 µM)
- MIC Enterococcus faecalis (GC 6189) ([3]; Enterococcus faecalis (GC 6189)): 0.5 µg/mL (≈ 0.353 µM)
- MIC Enterococcus faecium (GC 2243) ([3]; Enterococcus faecium (GC 2243)): 0.5 µg/mL (≈ 0.353 µM)
- MIC Enterococcus faecium (GC 4556) ([3]; Enterococcus faecium (GC 4556)): 0.5 µg/mL (≈ 0.353 µM)
- MIC Enterococcus faecium (GC 4557) ([3]; Enterococcus faecium (GC 4557)): 0.5 µg/mL (≈ 0.353 µM)
- MIC Enterococcus avium (GC 4558) [3, 5]: 0.5 µg/mL (≈ 0.353 µM)
- MIC Enterococcus faecalis (ATCC 29212) [3, 5]: 0.5 µg/mL (≈ 0.353 µM)
- MIC Enterococcus faecalis (GC 2242) [3, 5]: 0.5 µg/mL (≈ 0.353 µM)
- MIC Enterococcus faecalis (GC 2691) [3, 5]: 0.5 µg/mL (≈ 0.353 µM)
- MIC Enterococcus faecalis (GC 3059) [3, 5]: 0.5 µg/mL (≈ 0.353 µM)
- MIC Enterococcus faecalis (GC 4552) [3, 5]: 0.5 µg/mL (≈ 0.353 µM)
- MIC Enterococcus faecalis (GC 4553) [3, 5]: 0.5 µg/mL (≈ 0.353 µM)
- MIC Enterococcus faecalis (GC 4554) [3, 5]: 0.5 µg/mL (≈ 0.353 µM)
- MIC Enterococcus faecalis (GC 6189) [3, 5]: 0.5 µg/mL (≈ 0.353 µM)
- MIC Enterococcus faecium (GC 2243) [3, 5]: 0.5 µg/mL (≈ 0.353 µM)
- MIC Enterococcus faecium (GC 4556) [3, 5]: 0.5 µg/mL (≈ 0.353 µM)
- MIC Enterococcus faecium (GC 4557) [3, 5]: 0.5 µg/mL (≈ 0.353 µM)
- MIC Staphylococcus aureus (ATCC 29213) ([4]; strain ATCC 29213): 0.5 µg/mL (≈ 0.353 µM)
- MIC Staphylococcus aureus (GC 1131) ([4]; strain GC 1131): 0.5 µg/mL (≈ 0.353 µM)
- MIC Staphylococcus aureus (GC 3051) ([4]; strain GC 3051): 0.5 µg/mL (≈ 0.353 µM)
- MIC Staphylococcus aureus (GC 3053) ([4]; strain GC 3053): 0.5 µg/mL (≈ 0.353 µM)
- MIC Staphylococcus aureus (GC 4541) ([4]; strain GC 4541): 0.5 µg/mL (≈ 0.353 µM)
- MIC Staphylococcus aureus (GC 4542) ([4]; strain GC 4542): 0.5 µg/mL (≈ 0.353 µM)
- MIC Staphylococcus aureus-SMITH (GC 4543) ([4]; strain GC 4543): 0.5 µg/mL (≈ 0.353 µM)
- MIC Staphylococcus aureus (GC 4544) ([4]; strain GC 4544): 0.5 µg/mL (≈ 0.353 µM)
- MIC Staphylococcus aureus (GC 4545) ([4]; strain GC 4545): 0.5 µg/mL (≈ 0.353 µM)
- MIC Coagulase Negative Staphylococcus (GC 4547) ([4]; strain GC 4547): 4 µg/mL (≈ 2.82 µM)
- MIC Coagulase Negative Staphylococcus (GC 4548) ([4]; strain GC 4548): 2 µg/mL (≈ 1.41 µM)
- MIC Coagulase Negative Staphylococcus (GC 4549) ([4]; strain GC 4549): 1 µg/mL (≈ 0.705 µM)
- MIC Coagulase Negative Staphylococcus (GC 4551) ([4]; strain GC 4551): 4 µg/mL (≈ 2.82 µM)
- MIC Coagulase Negative Staphylococcus (GC 6257) ([4]; strain GC 6257): 2 µg/mL (≈ 1.41 µM)
SMILES: CC(c1ccc(Cl)cc1)C1NC(=O)CNC(=O)C(CO)NC(=O)C(C(O)C2CNC(=N)N2C2OC(CO)C(O)C(O)C2O)NC(=O)C(C(O)C2CNC(=N)N2)NC(=O)C(Cc2ccc(OC3OC(CO)C(OC4OC5COC(c6ccccc6)OC5C(O)C4O)C(O)C3O)cc2)NC1=O (stereo not drawn) [Example 195, Cyclo[glycyl-4-chloro-β-methylphenylalanyl-O-[4-O-(4,6-O-benzylidenehexopyranosyl)-hexopyranosyl]tyrosyl-3-(2-iminoimidazolidin-4-yl)seryl-3-(3-hexopyranosyl-2-iminoimidazolidin-4-yl)serylseryl]]
- MIC Staphylococcus haemolyticus (GC 4546) ([4]; strain GC 4546): 2 µg/mL (≈ 1.41 µM)
